PubChem BioAssay AID248 (DTP/NCI, 2004)
Where “and” joins values, the source holds several entries; their conditions need not be identical. Identical values can stand only once. Toxic doses and inconclusive results are not listed.

Tested on: L1210 leukemia ip in BDF1 mice, survival T/C
Test: NCI In Vivo Anticancer Drug Screen. Data for tumor model L1210 Leukemia (intraperitoneal) in B6D2F1 (BDF1) mice
Conditions: endpoint: mean survival time, higher = longer survival
In short: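 In this screen, tumor-bearing mice given compound are compared to those given vehicle, and their survival values are reported as a treated-to-control quotient.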

[1] = dose: 100.0 mg/kg/injection, schedule: Q01DX009 (ip), vehicle: Klucel (hydroxypropylcellulose) (HPC)
[2] = dose: 200.0 mg/kg/injection, schedule: Q01DX009 (ip), vehicle: Klucel (hydroxypropylcellulose) (HPC)
[3] = dose: 400.0 mg/kg/injection, schedule: Q01DX009 (ip), vehicle: Klucel (hydroxypropylcellulose) (HPC)
[4] = dose: 100.0 mg/kg/injection, schedule: Q04DX003 (ip), vehicle: saline with Tween-80
[5] = dose: 200.0 mg/kg/injection, schedule: Q04DX003 (ip), vehicle: saline with Tween-80
[6] = dose: 400.0 mg/kg/injection, schedule: Q04DX003 (ip), vehicle: saline with Tween-80
[7] = dose: 100.0 mg/kg/injection, schedule: Q01DX001 (ip), vehicle: saline
[8] = dose: 200.0 mg/kg/injection, schedule: Q01DX001 (ip), vehicle: saline
[9] = dose: 400.0 mg/kg/injection, schedule: Q01DX001 (ip), vehicle: saline
[10] = dose: 50.0 mg/kg/injection, schedule: Q01DX001 (ip), vehicle: saline

CNC(=O)Nc1cc(C)ccc1OC
T/C [1]: 100 % of control | T/C [2]: 104 % of control | T/C [3]: 109 % of control

O=C1C=C(C(Cl)(Cl)Cl)OC(=O)C1
T/C [4]: 98 % of control | T/C [5]: 98 % of control | T/C [6]: 93 % of control

CCOC(=O)C(CNC(N)=O)(c1ccccc1)c1ccccc1
T/C (dose: 50.0 mg/kg/injection, schedule: Q01DX001 (ip), vehicle: carboxymethylcellulose (CMC)): 93 % of control | T/C (dose: 100.0 mg/kg/injection, schedule: Q01DX001 (ip), vehicle: carboxymethylcellulose (CMC)): 102 % of control | T/C (dose: 200.0 mg/kg/injection, schedule: Q01DX001 (ip), vehicle: carboxymethylcellulose (CMC)): 87 % of control | T/C (dose: 400.0 mg/kg/injection, schedule: Q01DX001 (ip), vehicle: carboxymethylcellulose (CMC)): 98 % of control

O=C(N/N=C/c1ccccc1[N+](=O)[O-])c1ccccc1
T/C [1]: 94 % of control | T/C [2]: 94 % of control | T/C [3]: 97 % of control

O=C(CC(O)(C(F)(F)F)C(F)(F)F)c1cc(Cl)ccc1Cl
T/C [4]: 112 % of control | T/C [5]: 105 % of control | T/C [6]: 103 % of control

CN=C(NC(C)C)c1ccc(NC(=O)c2ccc(C(=O)Nc3ccc(C(=NC)NC(C)C)cc3)cc2)cc1
T/C (dose: 2.0 mg/kg/injection, schedule: Q01DX Z (ip), vehicle: carboxymethylcellulose (CMC)): 97 % of control | T/C (dose: 4.0 mg/kg/injection, schedule: Q01DX Z (ip), vehicle: carboxymethylcellulose (CMC)): 101 % of control | T/C (dose: 6.0 mg/kg/injection, schedule: Q01DX Z (ip), vehicle: carboxymethylcellulose (CMC)): 112 % of control | T/C (dose: 16.0 mg/kg/injection, schedule: Q01DX Z (ip), vehicle: carboxymethylcellulose (CMC)): 151 % of control | T/C (dose: 25.0 mg/kg/injection, schedule: Q01DX Z (oral), vehicle: carboxymethylcellulose (CMC)): 96 % of control | T/C (dose: 31.0 mg/kg/injection, schedule: Q01DX Z (ip), vehicle: methylcellulose (MC)): 117 % of control | T/C (dose: 50.0 mg/kg/injection, schedule: Q01DX Z (oral), vehicle: carboxymethylcellulose (CMC)): 101 % of control | T/C (dose: 62.5 mg/kg/injection, schedule: Q01DX Z (ip), vehicle: methylcellulose (MC)): 157 % of control | T/C (dose: 100.0 mg/kg/injection, schedule: Q01DX Z (oral), vehicle: carboxymethylcellulose (CMC)): 96 % of control | T/C (dose: 125.0 mg/kg/injection, schedule: Q01DX Z (ip), vehicle: methylcellulose (MC)): 157 % of control | T/C (dose: 200.0 mg/kg/injection, schedule: Q01DX Z (oral), vehicle: carboxymethylcellulose (CMC)): 101 % of control | T/C (dose: 250.0 mg/kg/injection, schedule: Q01DX Z (ip), vehicle: methylcellulose (MC)): 97 % of control

O=C(Nc1ccccc1C(F)(F)F)c1cccc(Cl)c1
T/C (dose: 50.0 mg/kg/injection, schedule: Q01DX009 (ip), vehicle: saline + alcohol): 89 % of control | T/C (dose: 100.0 mg/kg/injection, schedule: Q01DX009 (ip), vehicle: saline + alcohol): 101 % of control | T/C (dose: 200.0 mg/kg/injection, schedule: Q01DX009 (ip), vehicle: saline + alcohol): 94 % of control

Oc1ccc(O)c2c1C1C=CC2CC1
T/C [7]: 96 % of control | T/C [8]: 105 % of control | T/C [9]: 98 % of control

CCOc1ccc(/C=C\C(=O)O)cc1
T/C [1]: 97 % of control | T/C [2]: 102 % of control | T/C [3]: 107 % of control

CC1=CC(=N/S(=O)(=O)c2ccccc2)/C2CC(C)=C(C)CC2/C1=N\S(=O)(=O)c1ccccc1 (stereo not given)
T/C [1]: 95 % of control | T/C (dose: 100.0 mg/kg/injection, schedule: Q04DX003 (ip), vehicle: Klucel (hydroxypropylcellulose) (HPC)): 95 % of control | T/C [2]: 104 % of control | T/C (dose: 200.0 mg/kg/injection, schedule: Q04DX003 (ip), vehicle: Klucel (hydroxypropylcellulose) (HPC)): 92 % of control | T/C [3]: 103 % of control

CC(CN1CC(=O)NC(=O)C1)N1CC(=O)NC(=O)C1.[Cl][Pt][Cl] (stereo not given)
T/C (dose: 12.5 mg/kg/injection, schedule: Q04DX003 (ip), vehicle: water): 106 % of control | T/C (dose: 25.0 mg/kg/injection, schedule: Q04DX003 (ip), vehicle: water): 97 % of control | T/C (dose: 50.0 mg/kg/injection, schedule: Q04DX003 (ip), vehicle: water): 109 % of control | T/C (dose: 100.0 mg/kg/injection, schedule: Q01DX009 (ip), vehicle: water): 108 % of control | T/C (dose: 100.0 mg/kg/injection, schedule: Q04DX003 (ip), vehicle: water): 106 % of control and 107 % of control | T/C (dose: 200.0 mg/kg/injection, schedule: Q01DX009 (ip), vehicle: water): 121 % of control | T/C (dose: 200.0 mg/kg/injection, schedule: Q04DX003 (ip), vehicle: water): 101 % of control | T/C (dose: 400.0 mg/kg/injection, schedule: Q01DX009 (ip), vehicle: water): 160 % of control | T/C (dose: 400.0 mg/kg/injection, schedule: Q04DX003 (ip), vehicle: water): 118 % of control

OC(CN1CCCCC1)c1ccncc1 (stereo not given)
T/C (dose: 75.0 mg/kg/injection, schedule: Q04DX003 (ip), vehicle: saline): 94 % of control | T/C (dose: 150.0 mg/kg/injection, schedule: Q04DX003 (ip), vehicle: saline): 94 % of control | T/C (dose: 300.0 mg/kg/injection, schedule: Q04DX003 (ip), vehicle: saline): 96 % of control

CCOC(=O)N(c1ccccc1)c1ccccc1
T/C (dose: 100.0 mg/kg/injection, schedule: Q04DX002 (ip), vehicle: Klucel (hydroxypropylcellulose) (HPC)): 106 % of control | T/C (dose: 200.0 mg/kg/injection, schedule: Q04DX002 (ip), vehicle: Klucel (hydroxypropylcellulose) (HPC)): 106 % of control | T/C (dose: 400.0 mg/kg/injection, schedule: Q04DX002 (ip), vehicle: Klucel (hydroxypropylcellulose) (HPC)): 98 % of control

O=C1NC(=O)C(c2cccc(Cl)c2)N1 (stereo not given)
T/C [10]: 106 % of control | T/C [7]: 93 % of control | T/C [8]: 98 % of control | T/C [9]: 104 % of control

C=C1CC(CCCCC2CC(=C)C(=O)O2)OC1=O (stereo not given)
T/C (dose: 100.0 mg/kg/injection, schedule: Q04DX002 (ip), vehicle: saline): 108 % of control | T/C (dose: 200.0 mg/kg/injection, schedule: Q04DX002 (ip), vehicle: saline): 101 % of control | T/C (dose: 400.0 mg/kg/injection, schedule: Q04DX002 (ip), vehicle: saline): 108 % of control

COc1ccc(O)c(Br)c1
T/C (dose: 100.0 mg/kg/injection, schedule: Q01DX009 (ip), vehicle: other): 97 % of control | T/C (dose: 100.0 mg/kg/injection, schedule: Q04DX003 (ip), vehicle: other): 94 % of control | T/C (dose: 200.0 mg/kg/injection, schedule: Q01DX009 (ip), vehicle: other): 103 % of control | T/C (dose: 200.0 mg/kg/injection, schedule: Q04DX003 (ip), vehicle: other): 96 % of control | T/C (dose: 400.0 mg/kg/injection, schedule: Q04DX003 (ip), vehicle: other): 92 % of control

O=[N+]([O-])c1ccc(OCCCCCBr)c(Cl)c1
T/C (dose: 100.0 mg/kg/injection, schedule: Q04DX003 (ip), vehicle: gum acacia): 102 % of control | T/C (dose: 200.0 mg/kg/injection, schedule: Q04DX003 (ip), vehicle: gum acacia): 100 % of control | T/C (dose: 400.0 mg/kg/injection, schedule: Q04DX003 (ip), vehicle: gum acacia): 102 % of control

COc1c(C)c(C)c(OC)c(CC(=O)O)c1C
T/C [4]: 93 % of control | T/C [5]: 90 % of control | T/C [6]: 93 % of control

CCN(CC)CCN(C(=S)Nc1ccccc1)c1ccccc1
T/C (dose: 25.0 mg/kg/injection, schedule: Q01DX009 (ip), vehicle: Klucel (hydroxypropylcellulose) (HPC)): 103 % of control | T/C (dose: 50.0 mg/kg/injection, schedule: Q01DX009 (ip), vehicle: Klucel (hydroxypropylcellulose) (HPC)): 102 % of control | T/C [1]: 96 % of control

Oc1ccc(Br)c2cccnc12
T/C [10]: 100 % of control | T/C [7]: 103 % of control | T/C [8]: 103 % of control | T/C [9]: 100 % of control

CC(C)(C)CC(C)(C)N=Cc1ccccc1
T/C [7]: 98 % of control | T/C [8]: 105 % of control | T/C [9]: 88 % of control

O=C(NC1CCOC1=O)OCc1ccccc1 (stereo not given)
T/C (dose: 100.0 mg/kg/injection, schedule: Q01DX009 (ip), vehicle: saline with Tween-80): 94 % of control | T/C [4]: 95 % of control | T/C (dose: 200.0 mg/kg/injection, schedule: Q01DX009 (ip), vehicle: saline with Tween-80): 95 % of control | T/C [5]: 91 % of control | T/C (dose: 400.0 mg/kg/injection, schedule: Q01DX009 (ip), vehicle: saline with Tween-80): 94 % of control | T/C [6]: 95 % of control

CCN(CC)CCN(C#N)Cc1ccccc1
T/C (dose: 75.0 mg/kg/injection, schedule: Q01DX001 (ip), vehicle: carboxymethylcellulose (CMC)): 102 % of control

O=C(Oc1ccc(S(=O)(=O)F)cc1Cl)c1ccccc1Cl
T/C (dose: 100.0 mg/kg/injection, schedule: Q04DX003 (ip), vehicle: carboxymethylcellulose (CMC)): 98 % of control | T/C (dose: 200.0 mg/kg/injection, schedule: Q04DX003 (ip), vehicle: carboxymethylcellulose (CMC)): 95 % of control | T/C (dose: 400.0 mg/kg/injection, schedule: Q04DX003 (ip), vehicle: carboxymethylcellulose (CMC)): 104 % of control
